Test results as given in US20240002127A1 (priority 2020, published 2024).

Columns and labels:
[1] = type: in vitro ADME, mice, rats, monkeys, humans; conditions: mouse, rat, monkey, human
Method: In vitro metabolism of ALC-0315 and ALC-0159 was evaluated in blood, liver microsomes, S9 fractions, and hepatocytes from mice, rats, monkeys, and humans. In vivo metabolism was examined in rat plasma, urine, faeces, and liver samples from the PK study. […] ALC-0315 and ALC-0159 are apparently metabolised by hydrolytic metabolism of the ester and amide functionalities, respectively, and this hydrolytic metabolism is observed across the species evaluated.

[2] = type: in vivo, rats; conditions: rat
Method: A single dose PK study of ALC-0315 and […] following intravenous (IV) bolus injection of a nanoparticle formulation in rats was conducted to assess the PK and metabolism of lipid excipients ALC-0315 and ALC-0159.

[3] = target: human ACE2 peptidase domain (amino acids 1-615 of human ACE2 with C-terminal His-10 and Avi tags) (human) (UniProt Q9BYF1)
UniProt Q9BYF1, sequence (Q9BYF1 18-615 limits assumed): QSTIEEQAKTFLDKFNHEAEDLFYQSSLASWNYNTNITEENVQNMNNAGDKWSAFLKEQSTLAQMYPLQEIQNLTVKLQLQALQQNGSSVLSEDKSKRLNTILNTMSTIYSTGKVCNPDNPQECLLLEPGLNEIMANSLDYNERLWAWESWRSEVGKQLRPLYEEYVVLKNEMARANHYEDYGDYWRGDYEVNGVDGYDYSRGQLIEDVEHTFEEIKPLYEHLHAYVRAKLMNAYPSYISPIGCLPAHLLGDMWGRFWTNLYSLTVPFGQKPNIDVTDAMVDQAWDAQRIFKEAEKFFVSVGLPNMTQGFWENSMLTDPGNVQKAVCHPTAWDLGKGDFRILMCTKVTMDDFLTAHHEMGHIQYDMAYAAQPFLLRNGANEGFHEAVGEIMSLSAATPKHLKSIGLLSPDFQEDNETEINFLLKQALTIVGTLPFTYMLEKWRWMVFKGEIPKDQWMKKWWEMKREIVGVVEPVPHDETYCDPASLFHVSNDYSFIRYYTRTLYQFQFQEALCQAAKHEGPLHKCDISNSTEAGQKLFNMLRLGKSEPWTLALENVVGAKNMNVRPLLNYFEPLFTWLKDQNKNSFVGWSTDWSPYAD

| Compound | metabolism in vitro and in vivo [1] | eliminated unchanged in faeces [2] | apparent terminal t½ in plasma and liver ([2]; IV) | drop of concentration in liver ([2]; IV, over 2 weeks) | drop of concentration in plasma ([2]; IV, over 2 weeks) | Kd [3] | fold difference of KD against the reported KD of monomeric RBD [3] |
| --- | --- | --- | --- | --- | --- | --- | --- |
| CCCCCCCCC(CCCCCC)C(=O)OCCCCCCN(CCCCO)CCCCCCOC(=O)C(CCCCCC)CCCCCCCC (stereo not shown) [ALC-0315, ((4-hydroxybutyl)azanediyl)bis(hexane-6,1-diyl)bis(2-hexyldecanoate)] | relatively slowly | little to no unchanged material | 140 to 190 h | ~4 fold | approximately 7000 fold |  |  |
| RBD-foldon trimer (trimerised SARS-CoV-2 spike receptor-binding domain fused to T4 fibritin foldon, (other; other documents disagree on this pair) |  |  |  |  |  | 5 pM | 1000 fold |
